{
  "source": "patent US20100172972A1",
  "about": "“ENTERIC COATED PHARMACEUTICAL COMPOSITIONS” (priority 2007, published 2010)",
  "origin": "cited, not measured here",
  "key": {"[1]": {"experiment": "not given", "remark": "listed apart in the source"}},
  "note": "Counter-ions that a name gives are not always drawn.",
  "data": [
    {"smiles": "CNCC[C@H](Oc1cccc2ccccc12)c1cccs1", "note": "[Duloxetine hydrochloride]", "values": [
      {"measurement": "drug in the dosage hydrolyzed to 1-naphthol", "setting": "pH 1.0", "value": 50, "unit": "%"},
      {"measurement": "drug in the dosage degrades to 1-naphthol", "setting": "pH 2.0, in one hour", "value": 10, "unit": "%"},
      {"measurement": "time for 10% degradation", "setting": "pH 4.0", "value": "up to 63 hours"}
    ]},
    {"smiles": "CNCC[C@H](Oc1cccc2ccccc12)c1cccs1", "note": "[Duloxetine]", "values": [
      {"measurement": "solubility in water", "setting": "[1]", "value": "slightly soluble in water"}
    ]}
  ]
}
